Counter-ions that a name gives are not always drawn.
What was measured:
[1] = system: Nitrobacter spp.; experiment: Nitrite nitrogen in ammonium amended soil incubated at 25° C.; settings: soil 25° C., 200 ppm N
Protocol: Determination of nitrite nitrogen and nitrate nitrogen in soil prepared in Example 1 above, which is amended with 200 ppm of nitrogen as aqueous ammonium sulfate, […], is determined using the nitrite and nitrate analysis of the American Organization of Analytical Chemists (AOAC pp. 653-655).

[2] = system: Nitrosomonas spp.; experiment: Nitrification of ammonium in soil incubated at 25° C. (ammonium recovery, nitrate accumulation); settings: soil 25° C.; for Concentration of nitrate nitrogen / Recovery of Ammonium Nitrogen: 200 ppm N
Protocol: In these evaluations, one hundred grams (100 g) of oven dry, silt loam field soil with low residual nitrogen is added to a 6×12 cm screw-capped glass jar for each sampling date to provide an optimum environment for nitrification.
Two replicates of each treatment-sampling date are established. The soil is adjusted to 50% water saturation with an aqueous solution of ammonium sulfate at 200 ppm N and the chemical to be tested as a nitrification inhibitor at rates of from 0.10 to 0.50 ppm.
Incubation is at either 25° C. or 38° C. for 0, 1, 2, 4, 7, 9, 12, 16 or 20 weeks. Inorganic N is extracted by adding 2M KCl (10:1 v/w) and shaking for one hour, allowing settling for fifteen minutes. A 10 ml aliquot from the supernatant is assayed for ammonium, nitrite and nitrate by standard steam distillation methods (AOAC, pp. 653-655). Nitrapyrin (0.5 ppm) is used as a nitrification inhibitor for comparison. Benzyl alcohol, acetone, and a non-N amended soil are run as controls and as a check on mineralization.
Nitrification: Ammonium recovery and nitrate accumulation are indicative of nitrification, and data obtained with test compounds are reported in Tables I and II.

## CC[C@@H](C(=O)[C@@H](C)[C@@H](O)[C@H](C)[C@@H]1O[C@@H]([C@@H](CC)C(=O)O)CC[C@@H]1C)[C@H]1O[C@]2(C=C[C@@H](O)[C@]3(CC[C@@](C)([C@H]4CC[C@](O)(CC)[C@H](C)O4)O3)O2)[C@H](C)C[C@@H]1C [Salinomycin monosodium salt, Salinomycin]
[1]; 0.10 ppm, week 0
  Concentration of nitrite nitrogen: 7 ppm
[1]; 0.10 ppm, week 1
  Concentration of nitrite nitrogen: 5 ppm
[1]; 0.10 ppm, week 2
  Concentration of nitrite nitrogen: 7 ppm
[1]; 0.10 ppm, week 4
  Concentration of nitrite nitrogen: 6 ppm
[1]; 0.10 ppm, week 7
  Concentration of nitrite nitrogen: -4 ppm
[1]; 0.10 ppm, week 9
  Concentration of nitrite nitrogen: 25 ppm
[1]; 0.10 ppm, week 12
  Concentration of nitrite nitrogen: 7 ppm
[1]; 0.10 ppm, week 16
  Concentration of nitrite nitrogen: 7 ppm
[1]; 0.10 ppm, week 20
  Concentration of nitrite nitrogen: 11 ppm
[1]; 0.25 ppm, week 0
  Concentration of nitrite nitrogen: 8 ppm
[1]; 0.25 ppm, week 1
  Concentration of nitrite nitrogen: 5 ppm
[1]; 0.25 ppm, week 2
  Concentration of nitrite nitrogen: 3 ppm
[1]; 0.25 ppm, week 4
  Concentration of nitrite nitrogen: 7 ppm
[1]; 0.25 ppm, week 7
  Concentration of nitrite nitrogen: -1 ppm
[1]; 0.25 ppm, week 9
  Concentration of nitrite nitrogen: 7 ppm
[1]; 0.25 ppm, week 12
  Concentration of nitrite nitrogen: 9 ppm
[1]; 0.25 ppm, week 16
  Concentration of nitrite nitrogen: 2 ppm
[1]; 0.25 ppm, week 20
  Concentration of nitrite nitrogen: 47 ppm
[1]; 0.50 ppm, week 0
  Concentration of nitrite nitrogen: 9 ppm
[1]; 0.50 ppm, week 1
  Concentration of nitrite nitrogen: 3 ppm
[1]; 0.50 ppm, week 2
  Concentration of nitrite nitrogen: 3 ppm
[1]; 0.50 ppm, week 4
  Concentration of nitrite nitrogen: 14 ppm
[1]; 0.50 ppm, week 7
  Concentration of nitrite nitrogen: 4 ppm
[1]; 0.50 ppm, week 9
  Concentration of nitrite nitrogen: -1 ppm
[1]; 0.50 ppm, week 12
  Concentration of nitrite nitrogen: 1 ppm
[1]; 0.50 ppm, week 16
  Concentration of nitrite nitrogen: 8 ppm
[1]; 0.50 ppm, week 20
  Concentration of nitrite nitrogen: 14 ppm
[2]; 0.10 ppm, week 0
  Concentration of nitrate nitrogen: 18 PPM
  Recovery of Ammonium Nitrogen: 194 PPM
[2]; 0.10 ppm, week 1
  Concentration of nitrate nitrogen: 20 PPM
  Recovery of Ammonium Nitrogen: 171 PPM
[2]; 0.10 ppm, week 2
  Concentration of nitrate nitrogen: 20 PPM
  Recovery of Ammonium Nitrogen: 183 PPM
[2]; 0.10 ppm, week 4
  Concentration of nitrate nitrogen: 26 PPM
  Recovery of Ammonium Nitrogen: 184 PPM
[2]; 0.10 ppm, week 7
  Concentration of nitrate nitrogen: 27 PPM
  Recovery of Ammonium Nitrogen: 136 PPM
[2]; 0.10 ppm, week 9
  Concentration of nitrate nitrogen: 201 PPM
  Recovery of Ammonium Nitrogen: 3 PPM
[2]; 0.10 ppm, week 12
  Concentration of nitrate nitrogen: 219 PPM
  Recovery of Ammonium Nitrogen: 10 PPM
[2]; 0.10 ppm, week 16
  Concentration of nitrate nitrogen: 233 PPM
  Recovery of Ammonium Nitrogen: 5 PPM
[2]; 0.10 ppm, week 20
  Recovery of Ammonium Nitrogen: 0 PPM
[2]; 0.1 to 0.5 ppm
  Specific inhibition of nitrification through activity against Nitrosomonas spp., in words: appear to specifically inhibit nitrification through activity against Nitrosomonas spp.
[2]; 0.25 ppm, week 0
  Concentration of nitrate nitrogen: 19 PPM
  Recovery of Ammonium Nitrogen: 193 PPM
[2]; 0.25 ppm, week 1
  Concentration of nitrate nitrogen: 23 PPM
  Recovery of Ammonium Nitrogen: 176 PPM
[2]; 0.25 ppm, week 2
  Concentration of nitrate nitrogen: 22 PPM
  Recovery of Ammonium Nitrogen: 189 PPM
[2]; 0.25 ppm, week 4
  Concentration of nitrate nitrogen: 23 PPM
  Recovery of Ammonium Nitrogen: 185 PPM
[2]; 0.25 ppm, week 7
  Concentration of nitrate nitrogen: 45 PPM
  Recovery of Ammonium Nitrogen: 167 PPM
[2]; 0.25 ppm, week 9
  Concentration of nitrate nitrogen: 44 PPM
  Recovery of Ammonium Nitrogen: 171 PPM
[2]; 0.25 ppm, week 12
  Concentration of nitrate nitrogen: 57 PPM
  Recovery of Ammonium Nitrogen: 168 PPM
[2]; 0.25 ppm, week 16
  Concentration of nitrate nitrogen: 121 PPM
  Recovery of Ammonium Nitrogen: 111 PPM
[2]; 0.25 ppm, week 20
  Concentration of nitrate nitrogen: 187 PPM
  Recovery of Ammonium Nitrogen: 4 PPM
[2]; 0.50 ppm, week 0
  Concentration of nitrate nitrogen: 19 PPM
  Recovery of Ammonium Nitrogen: 194 PPM
[2]; 0.50 ppm, week 1
  Concentration of nitrate nitrogen: 22 PPM
  Recovery of Ammonium Nitrogen: 167 PPM
[2]; 0.50 ppm, week 2
  Concentration of nitrate nitrogen: 21 PPM
  Recovery of Ammonium Nitrogen: 185 PPM
[2]; 0.50 ppm, week 4
  Concentration of nitrate nitrogen: 18 PPM
  Recovery of Ammonium Nitrogen: 170 PPM
[2]; 0.50 ppm, week 7
  Concentration of nitrate nitrogen: 18 PPM
  Recovery of Ammonium Nitrogen: 197 PPM
[2]; 0.50 ppm, week 9
  Concentration of nitrate nitrogen: 26 PPM
  Recovery of Ammonium Nitrogen: 196 PPM
[2]; 0.50 ppm, week 12
  Concentration of nitrate nitrogen: 39 PPM
  Recovery of Ammonium Nitrogen: 191 PPM
[2]; 0.50 ppm, week 16
  Concentration of nitrate nitrogen: 28 PPM
  Recovery of Ammonium Nitrogen: 205 PPM
[2]; 0.50 ppm, week 20
  Concentration of nitrate nitrogen: 45 PPM
  Recovery of Ammonium Nitrogen: 176 PPM
[2]; 20 weeks study
  Effectiveness as nitrification inhibitor, in words: second most effective inhibitor
